These results are taken from US20210255193A1, “LYSINE REACTIVE PROBES AND USES THEREOF” (The Scripps Research Institute, priority 2017, published 2021).

Holding throughout (experiment): competitive isoTOP-ABPP
Common to all, as to type: binding

For experiment [1], the target named is T1, MAP2K3 Dual specificity mitogen-activated protein kinase (Homo sapiens, UniProt P46734).
T1 construct: isoTOP-ABPP experiments performed in cell lysates (in vitro); endogenous in cells; host or cells: soluble proteome of human cancer cell lines (MDA-MB-231; Ramos and Jurkat also prepared)
T1 sequence (P46734 1-347): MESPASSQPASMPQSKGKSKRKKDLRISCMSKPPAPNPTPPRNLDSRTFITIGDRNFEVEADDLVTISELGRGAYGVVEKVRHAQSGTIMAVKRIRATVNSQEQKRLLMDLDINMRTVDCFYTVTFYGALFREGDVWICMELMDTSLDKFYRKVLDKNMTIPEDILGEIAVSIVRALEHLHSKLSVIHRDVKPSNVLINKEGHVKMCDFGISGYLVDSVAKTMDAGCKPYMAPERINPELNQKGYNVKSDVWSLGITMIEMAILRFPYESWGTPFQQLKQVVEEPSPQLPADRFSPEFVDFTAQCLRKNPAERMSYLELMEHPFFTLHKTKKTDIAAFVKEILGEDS
The note with it: 50 uM, in vitro; for R value (DMSO/fragment) for probe 1 labeling: P46734_K93; for R value (DMSO/fragment) for probe 1 labeling / isoTOP-ABPP reactivity ratio at lysine P46734_K93: 231 sol; for isoTOP-ABPP ratio (R) at liganded lysine P46734_K93: sol, 231. The gist of the method: (§1)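 Lysine engagement is reported as R, the MS1 peak-area ratio of heavy-tagged DMSO to light-tagged compound samples. Final fragment concentrations were 50 μM for activated esters and 100 μM for guanidinylating agents; STP-alkyne probe 0.1 mM, 1 h.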

The target of experiment [2] is T2, KIAA1967 DBIRD complex subunit KIAA1967 (Homo sapiens, UniProt Q8N163).
T2 construct: isoTOP-ABPP experiments performed in cell lysates (in vitro); endogenous in cells; host or cells: soluble proteome of human cancer cell lines (MDA-MB-231; Ramos and Jurkat also prepared)
As to conditions: 50 uM, in vitro; for R value (DMSO/fragment) for probe 1 labeling / isoTOP-ABPP reactivity ratio at lysine Q8N163_K97 / isoTOP-ABPP reactivity ratio at lysine Q8N163_K112: 231 sol. The gist of the method:
as §1

For experiment [3], the target named is T3, PFKL 6-phosphofructokinase, liver type (Homo sapiens, UniProt P17858).
T3 construct: isoTOP-ABPP experiments performed in cell lysates (in vitro); endogenous in cells; host or cells: soluble proteome of human cancer cell lines (MDA-MB-231; Ramos and Jurkat also prepared)
T3 sequence (P17858 1-780): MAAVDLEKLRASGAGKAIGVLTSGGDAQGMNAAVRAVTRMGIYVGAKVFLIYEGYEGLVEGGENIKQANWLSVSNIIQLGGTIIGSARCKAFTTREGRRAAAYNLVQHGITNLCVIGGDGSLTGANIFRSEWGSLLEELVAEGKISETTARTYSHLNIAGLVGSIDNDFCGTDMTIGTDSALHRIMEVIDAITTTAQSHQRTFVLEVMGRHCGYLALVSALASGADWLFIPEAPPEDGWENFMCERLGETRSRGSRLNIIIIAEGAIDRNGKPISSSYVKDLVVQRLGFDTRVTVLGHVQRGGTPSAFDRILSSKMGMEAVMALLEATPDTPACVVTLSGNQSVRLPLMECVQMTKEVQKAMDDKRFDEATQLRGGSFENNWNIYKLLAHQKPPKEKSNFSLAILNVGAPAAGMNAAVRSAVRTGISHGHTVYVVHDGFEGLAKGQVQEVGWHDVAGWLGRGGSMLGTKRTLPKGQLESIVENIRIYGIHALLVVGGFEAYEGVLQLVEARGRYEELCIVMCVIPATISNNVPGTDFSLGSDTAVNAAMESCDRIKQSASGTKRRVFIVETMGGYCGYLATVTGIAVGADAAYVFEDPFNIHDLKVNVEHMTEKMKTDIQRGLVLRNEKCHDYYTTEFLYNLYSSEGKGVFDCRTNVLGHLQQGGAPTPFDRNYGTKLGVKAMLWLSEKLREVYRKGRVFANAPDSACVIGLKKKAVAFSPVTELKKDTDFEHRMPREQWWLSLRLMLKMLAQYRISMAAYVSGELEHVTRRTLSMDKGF
As to conditions: 50 uM, in vitro; for R value (DMSO/fragment) for probe 1 labeling / isoTOP-ABPP reactivity ratio at lysine P17858_K315 / isoTOP-ABPP reactivity ratio at lysine P17858_K677 / isoTOP-ABPP reactivity ratio at lysine P17858_K715: 231 sol. The gist of the method: as §1

In the next experiment the target is T4, DCTN2 Dynactin subunit 2 (Homo sapiens, UniProt Q13561).
T4 construct: isoTOP-ABPP experiments performed in cell lysates (in vitro); endogenous in cells; host or cells: soluble proteome of human cancer cell lines (MDA-MB-231, Ramos, Jurkat)
As to conditions: 50 uM, 231 sol, in vitro; for R value (DMSO/fragment) for probe 1 labeling: Q13561_K175. The gist of the method:
as §1

T4 sequence (Q13561 whole entry): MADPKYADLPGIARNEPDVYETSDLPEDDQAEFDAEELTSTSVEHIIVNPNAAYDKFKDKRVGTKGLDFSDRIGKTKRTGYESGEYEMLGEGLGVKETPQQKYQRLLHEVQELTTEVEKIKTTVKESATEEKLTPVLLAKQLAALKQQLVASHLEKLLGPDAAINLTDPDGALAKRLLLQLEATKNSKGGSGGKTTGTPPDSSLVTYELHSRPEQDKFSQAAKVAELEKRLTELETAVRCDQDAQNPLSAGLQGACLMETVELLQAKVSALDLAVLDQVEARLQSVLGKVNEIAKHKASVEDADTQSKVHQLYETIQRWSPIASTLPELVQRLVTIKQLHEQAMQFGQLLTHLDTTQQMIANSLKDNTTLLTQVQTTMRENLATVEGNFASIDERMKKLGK
T2 sequence (Q8N163 whole entry, one chain of several): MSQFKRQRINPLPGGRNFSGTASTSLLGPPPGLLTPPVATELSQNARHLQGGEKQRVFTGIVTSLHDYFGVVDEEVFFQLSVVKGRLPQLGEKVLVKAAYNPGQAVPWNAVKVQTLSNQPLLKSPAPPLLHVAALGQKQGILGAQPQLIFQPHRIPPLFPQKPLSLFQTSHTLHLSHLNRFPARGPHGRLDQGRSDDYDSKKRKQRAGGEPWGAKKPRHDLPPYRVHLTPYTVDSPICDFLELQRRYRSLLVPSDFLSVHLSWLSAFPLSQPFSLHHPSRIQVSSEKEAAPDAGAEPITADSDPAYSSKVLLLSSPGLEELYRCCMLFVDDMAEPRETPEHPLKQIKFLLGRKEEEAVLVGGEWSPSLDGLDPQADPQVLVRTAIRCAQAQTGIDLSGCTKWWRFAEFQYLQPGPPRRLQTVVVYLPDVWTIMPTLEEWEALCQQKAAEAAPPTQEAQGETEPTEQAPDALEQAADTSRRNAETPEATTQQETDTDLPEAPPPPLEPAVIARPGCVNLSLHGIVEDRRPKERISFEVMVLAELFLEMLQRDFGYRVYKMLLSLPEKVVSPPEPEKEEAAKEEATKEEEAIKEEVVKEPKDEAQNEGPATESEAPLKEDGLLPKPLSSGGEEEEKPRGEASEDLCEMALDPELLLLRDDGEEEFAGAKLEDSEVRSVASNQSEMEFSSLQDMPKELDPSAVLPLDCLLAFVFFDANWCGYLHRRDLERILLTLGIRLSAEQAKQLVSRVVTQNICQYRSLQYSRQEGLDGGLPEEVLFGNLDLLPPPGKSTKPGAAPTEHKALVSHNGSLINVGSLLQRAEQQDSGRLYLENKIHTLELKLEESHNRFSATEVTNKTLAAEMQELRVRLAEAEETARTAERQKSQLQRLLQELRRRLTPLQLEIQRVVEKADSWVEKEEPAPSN

`O=C(CCc1cn(-c2ccccc2)nc1-c1ccccc1)Oc1c(F)c(F)c(F)c(F)c1F` [fragment 19, Pentafluorophenyl 3-(1,3-diphenyl-1H-pyrazol-4-yl)propanoate]: the “R value (DMSO/fragment) for probe 1 labeling” value (shortened to “R value (DMSO/fragment)”) in experiment [1] was 0.9; in experiment [2] (Q8N163_K97) it was 0.9; in experiment [2] (Q8N163_K112) it was 1.2; in experiment [3] (P17858_K315), 1.0; in experiment [3] (P17858_K677), 1.2; in experiment [3] (P17858_K715), 1.6.
In the case of `O=C(Oc1c(F)c(F)c(F)c(F)c1F)C(c1ccccc1)c1ccccc1` [fragment 20, Pentafluorophenyl 2,2-diphenylacetate], the “R value (DMSO/fragment)” value in experiment [1] stood at 0.9; in experiment [2] (Q8N163_K97), 0.9; in experiment [2] (Q8N163_K112) it was 1.0; in experiment [3] (P17858_K677) it was 18.8; in experiment [3] (P17858_K715) it was 1.3; at DCTN2 Dynactin subunit 2, 1.0.
Turning to `O=C(Oc1c(F)c(F)c(F)c(F)c1F)c1cc(C(F)(F)F)cc(C(F)(F)F)c1` [fragment 21, Pentafluorophenyl 3,5-bis(trifluoromethyl)benzoate], the “R value (DMSO/fragment)” value amounted to 0.9 in experiment [1]; 0.7 in experiment [2] (Q8N163_K97); 1.0 in experiment [2] (Q8N163_K112); 0.9 in experiment [3] (P17858_K677); 0.9 in experiment [3] (P17858_K715); 0.9 on DCTN2 Dynactin subunit 2.
Consider `Cn1cc(CC(=O)Oc2c(F)c(F)c(F)c(F)c2F)c2ccccc21` [fragment 22, Pentafluorophenyl 2-(1-methyl-1H-indol-3-yl)acetate], for which the “R value (DMSO/fragment)” value in experiment [1] turned out to be 0.9; in experiment [2] (Q8N163_K97), 1.0; in experiment [2] (Q8N163_K112), 1.1; in experiment [3] (P17858_K677), 2.7; in experiment [3] (P17858_K715), 2.9; on DCTN2 Dynactin subunit 2, 1.7.
On to `COc1cc(CCC(=O)Oc2c(F)c(F)c(F)c(F)c2F)cc(OC)c1OC` [fragment 23, Pentafluorophenyl 3-(3,4,5-trimethoxyphenyl)propanoate], for which the “R value (DMSO/fragment)” value in experiment [1] stood at 0.9; in experiment [2] (Q8N163_K97) it was 0.8; in experiment [2] (Q8N163_K112) it was 1.1; in experiment [3] (P17858_K677), 1.8; in experiment [3] (P17858_K715), 0.6; on DCTN2 Dynactin subunit 2 it was 1.1.
As to `O=C(Oc1c(F)c(F)c(F)c(F)c1F)C1CCN(C(=O)OCc2ccccc2)CC1` [fragment 24, 1-Benzyl 4-(pentafluorophenyl) piperidine-1,4-dicarboxylate], in experiment [2], the “isoTOP-ABPP reactivity ratio at lysine Q8N163_K97” value came to 0.9 and the “isoTOP-ABPP reactivity ratio at lysine Q8N163_K112” value worked out at 1.0. Also, in experiment [3], the “isoTOP-ABPP reactivity ratio at lysine P17858_K315” value is on record as 0.9, the “isoTOP-ABPP reactivity ratio at lysine P17858_K677” value came to 3.3 and the “isoTOP-ABPP reactivity ratio at lysine P17858_K715” value was 0.9. In addition, the “isoTOP-ABPP reactivity ratio at lysine Q13561_K175” value on DCTN2 Dynactin subunit 2 was 1.3.
Consider `O=C(Oc1c(F)c(F)c(F)c(F)c1F)c1ccc2ccccc2n1` [fragment 25, Pentafluorophenyl quinoline-2-carboxylate], for which, in experiment [2], the “isoTOP-ABPP reactivity ratio at lysine Q8N163_K97” value is 0.7 and the “isoTOP-ABPP reactivity ratio at lysine Q8N163_K112” value came to 1.1. In experiment [3], the “isoTOP-ABPP reactivity ratio at lysine P17858_K315” value is given as 0.9, the “isoTOP-ABPP reactivity ratio at lysine P17858_K677” value amounted to 1.6 and the “isoTOP-ABPP reactivity ratio at lysine P17858_K715” value is on record as 1.3. Further, the “isoTOP-ABPP reactivity ratio at lysine Q13561_K175” value on DCTN2 Dynactin subunit 2 was 1.1.
As for `O=C(CCc1coc2cc(F)ccc2c1=O)Oc1c(F)c(F)c(F)c(F)c1F` [fragment 26, Pentafluorophenyl 3-(7-fluoro-4-oxo-4H-chromen-3-yl)propanoate], the “isoTOP-ABPP reactivity ratio at lysine P46734_K93” value in experiment [1] stood at 1.1. Moreover, in experiment [2], the “isoTOP-ABPP reactivity ratio at lysine Q8N163_K97” value is given as 0.9 and the “isoTOP-ABPP reactivity ratio at lysine Q8N163_K112” value stood at 1.1. Moreover, in experiment [3], the “isoTOP-ABPP reactivity ratio at lysine P17858_K677” value worked out at 20.0 and the “isoTOP-ABPP reactivity ratio at lysine P17858_K715” value is reported as 1.5. Besides, the “isoTOP-ABPP reactivity ratio at lysine Q13561_K175” value on DCTN2 Dynactin subunit 2 was 1.6.
For the compound `O=C(CN1C(=O)c2ccccc2C1=O)Oc1c(F)c(F)c(F)c(F)c1F` [fragment 27, Pentafluorophenyl 2-(1,3-dioxoisoindolin-2-yl)acetate], in experiment [2], the “isoTOP-ABPP reactivity ratio at lysine Q8N163_K97” value was 0.9 and the “isoTOP-ABPP reactivity ratio at lysine Q8N163_K112” value amounted to 1.2. Also, in experiment [3], the “isoTOP-ABPP reactivity ratio at lysine P17858_K677” value turned out to be 18.1 and the “isoTOP-ABPP reactivity ratio at lysine P17858_K715” value is recorded as 1.3. The “isoTOP-ABPP reactivity ratio at lysine Q13561_K175” value on DCTN2 Dynactin subunit 2 is 1.2.
Turning to `CCn1cc(C(=O)Oc2c(F)c(F)c(F)c(F)c2F)c(=O)c2ccc(C)nc21` [fragment 28, Pentafluorophenyl 1-ethyl-7-methyl-4-oxo-1,4-dihydro-1,8-naphthyridine-3-carboxylate], in experiment [2], the “isoTOP-ABPP reactivity ratio at lysine Q8N163_K97” value came to 0.9 and the “isoTOP-ABPP reactivity ratio at lysine Q8N163_K112” value worked out at 1.1. In addition, in experiment [3], the “isoTOP-ABPP reactivity ratio at lysine P17858_K677” value is listed as 1.1 and the “isoTOP-ABPP reactivity ratio at lysine P17858_K715” value was 1.5.
As to `O=C(CCc1cn(-c2ccccc2)nc1-c1ccccc1)Oc1ccc([N+](=O)[O-])cc1[N+](=O)[O-]` [fragment 29, 2,4-Dinitrophenyl 3-(1,3-diphenyl-1H-pyrazol-4-yl)propanoate], the “isoTOP-ABPP reactivity ratio at lysine P46734_K93” value in experiment [1] is given as 0.9. Also, in experiment [2], the “isoTOP-ABPP reactivity ratio at lysine Q8N163_K97” value is on record as 0.8 and the “isoTOP-ABPP reactivity ratio at lysine Q8N163_K112” value came to 1.2. Also, in experiment [3], the “isoTOP-ABPP reactivity ratio at lysine P17858_K315” value is on record as 0.8, the “isoTOP-ABPP reactivity ratio at lysine P17858_K677” value worked out at 2.0 and the “isoTOP-ABPP reactivity ratio at lysine P17858_K715” value turned out to be 6.8. Further, on DCTN2 Dynactin subunit 2, the “isoTOP-ABPP reactivity ratio at lysine Q13561_K175” value amounted to 1.3.
In the case of `O=C(Oc1ccc([N+](=O)[O-])cc1[N+](=O)[O-])C(c1ccccc1)c1ccccc1` [fragment 30, 2,4-Dinitrophenyl 2,2-diphenylacetate], in experiment [1], the “isoTOP-ABPP reactivity ratio at lysine P46734_K93” value amounted to 1.4. For the same compound, in experiment [2], the “isoTOP-ABPP reactivity ratio at lysine Q8N163_K97” value is listed as 1.0 and the “isoTOP-ABPP reactivity ratio at lysine Q8N163_K112” value amounted to 1.4. Also, in experiment [3], the “isoTOP-ABPP reactivity ratio at lysine P17858_K315” value was found to be 4.9 and the “isoTOP-ABPP reactivity ratio at lysine P17858_K677” value is recorded as 20.0. The “isoTOP-ABPP reactivity ratio at lysine Q13561_K175” value on DCTN2 Dynactin subunit 2 is given as 3.4.
In the case of `O=C(CCc1coc2cc(F)ccc2c1=O)Oc1ccc([N+](=O)[O-])cc1[N+](=O)[O-]` [fragment 36, 2,4-Dinitrophenyl 3-(7-fluoro-4-oxo-4H-chromen-3-yl)propanoate], in experiment [1], the “isoTOP-ABPP ratio (R) at liganded lysine P46734_K93” value worked out at 0.9. For the same compound, in experiment [2] (sol, 231), the “isoTOP-ABPP ratio (R) at liganded lysine Q8N163_K97” value was found to be 0.9 and the “isoTOP-ABPP ratio (R) at liganded lysine Q8N163_K112” value is recorded as 1.1. In experiment [3] (sol, 231), the “isoTOP-ABPP ratio (R) at liganded lysine P17858_K677” value turned out to be 20.0 and the “isoTOP-ABPP ratio (R) at liganded lysine P17858_K715” value amounted to 20.0.
For the compound `O=C(CC12CC3CC(CC(C3)C1)C2)Oc1ccc([N+](=O)[O-])cc1[N+](=O)[O-]` [fragment 38, 2,4-Dinitrophenyl 2-(adamantan-1-yl)acetate], the “isoTOP-ABPP ratio (R) at liganded lysine P46734_K93” value in experiment [1] came out at 0.9. In experiment [3] (sol, 231), the “isoTOP-ABPP ratio (R) at liganded lysine P17858_K315” value is 0.4, the “isoTOP-ABPP ratio (R) at liganded lysine P17858_K677” value was found to be 1.3 and the “isoTOP-ABPP ratio (R) at liganded lysine P17858_K715” value worked out at 20.0.
